Data from patent publication US10633669B2, “Herbicide-resistant protein, encoding gene and use thereof” (BEIJING DABEINONG TECHNOLOGY GROUP CO., LTD., priority 2015, dated 2020).

Key:
[1] = test system: Arabidopsis T1 plants transformed with control nucleotide sequence; assay: Herbicide resistance effect test of Arabidopsis T1 plants with control sequence (spray); assay type: in vivo, Arabidopsis thaliana; details: genotype Control, 560 g ae/ha
From the text: (§1) 24DT11 gene was used to transform Arabidopsis for the first time. At first, T1 transformants were selected from the background of un-transformed seeds, using glufosinate-ammonium selection scheme. About 20000 T1 seeds are screened among which 282 strains of T1 generation positive transformants (PAT gene) were identified, i.e. the transformation efficiency was about 1.4%. Herbicide resistance effect tests to 2,4-D dimethyl ammonium salt and agroxone of Arabidopsis T1 plants transformed with 24DT11 nucleotide sequence, control nucleotide sequence respectively and wild-type Arabidopsis plants were performed after 18 days of planting.
(§2) Arabidopsis T1 plants transformed with 24DT11 nucleotide sequence, control nucleotide sequence respectively and wild-type Arabidopsis plants were sprayed with 2,4-D dimethyl ammonium salt (560 g ae/ha, 1-fold concentration in field), agroxone (560 g ae/ha, 1-fold concentration in field) and blank solvent (water). Resistance conditions of the plants were counted 7 days and 14 days after spraying. Plants with growth conditions consistent with blank solvent (water) 7 days after spaying were classified as highly resistant plants; Plants with curly rosette leaves 7 days after spaying were classified as moderately resistant plants; Plants incapable of bolting 14 days after spaying were classified as low-resistant plants and the dead plants 14 days after spaying were classified as non-resistant plants. Because each Arabidopsis T1 plant is an independent transformation event, significant differences of individual T1 responses can be expected under a given dose.

[2] = test system: wild type corn plants (CK2); assay: Herbicide-resistance effect test of wild type corn (spray, prop root development); assay type: in vivo; details: wild type corn strain CK2; 8960 g ae/ha; 21 days after spraying
Experimental: (§3) Herbicide resistance effects tests to 2,4-D dimethyl ammonium salt and agroxone of corn plants containing 24DT11 nucleotide sequence, control nucleotide sequence respectively and wild type corn plants (stages V3-V4) were performed respectively.
(§4) Corn plants containing 24DT11 nucleotide sequence, control nucleotide sequence respectively and wild type corn plants were taken and spayed with 2,4-D dimethyl ammonium salt (8960 g ae/ha, 16-folds concentration in field), agroxone (8960 g ae/ha, 16-folds concentration in field) and blank solvent (water) respectively. Prop root development was counted 21 days after spaying. Three strains (S6, S7 and S8) of corn plants transformed with 24DT11 nucleotide sequence, two strains (S9 and S10) of corn plants transformed with control nucleotide sequence and 1 strain of wild type (CK2) corn were selected and 10-15 plants from each stain were tested.

[3] = test system: Arabidopsis T1 plants transformed with 24DT11 nucleotide sequence; assay: Herbicide resistance effect test of transgenic Arabidopsis T1 plants (spray); assay type: in vivo, Arabidopsis thaliana; details: genotype 24DT11
From the text: as §1, §2

[4] = test system: Corn plants containing control nucleotide sequence (S9 and S10); assay: Herbicide-resistance effect test of corn plants with control sequence (spray, prop root development); assay type: in vivo; details: 8960 g ae/ha, 21 days after spraying
Experimental: as §3, §4

[5] = test system: Soybean plants containing control nucleotide sequence (S4 and S5); assay: Herbicide-resistance effect of soybean plants with control sequence (spray, damage degree); assay type: in vivo; details: 2240 g ae/ha; for Average damage % 6HAT: 6 hours after spraying; for Average damage % 2DAT: 2 days after spraying; for Average damage % 7DAT: 7 days after spraying; for Average damage % 14DAT: 14 days after spraying
Experimental: (§5) Herbicide resistance effects tests to 2,4-D dimethyl ammonium salt and agroxone of soybean plants containing 24DT11 nucleotide sequence and control nucleotide sequence respectively and wild type soybean plants (stages V3-V4) were performed respectively.
(§6) Soybean plants containing 24DT11 nucleotide sequence, control nucleotide sequence and wild type soybean plants were taken and spayed with 2,4-D dimethyl ammonium salt (2240 g ae/ha, four-folds concentration in field), agroxone (2240 g ae/ha, four-folds concentration in field) and blank solvent (water). Take statistics of the damage degree of each plant caused by herbicides according to the curling degree of leaves and the damage degree of growing point six hours ([…]), two days (2DAT), seven days (7DAT) and 14 days (14DAT) after spraying respectively: if leaves are flat like wild-type leaves and the growing point is intact, the damage degree is 0%; if leaves curl up and wilt and the growing point is died, the damage degree is 100%. There are three strains contained a transferred 24DT11 nucleotide sequence (S1, S2 and S3), two strains contained a transferred control sequence (S4 and S5) and one wild-type strain (CK1) in total; select 10˜15 plants from each strain for testing.

[6] = test system: Corn plants containing 24DT11 nucleotide sequence (S6, S7 and S8); assay: Herbicide-resistance effect test of transgenic corn plants (spray, prop root development); assay type: in vivo; details: 21 days after spraying
Experimental: as §3, §4

[7] = test system: wild-type Arabidopsis plants; assay: Herbicide resistance effect test of wild-type Arabidopsis (spray); assay type: in vivo, Arabidopsis thaliana; details: genotype Wild, 560 g ae/ha
From the text: as §1, §2

[8] = test system: wild type soybean plants (CK1); assay: Herbicide-resistance effect of wild type soybean (spray, damage degree); assay type: in vivo; details: wild-type soybean strain CK1, 2240 g ae/ha
Experimental: as §5, §6

[9] = test system: Soybean plants containing 24DT11 nucleotide sequence (S1, S2 and S3); assay: Herbicide-resistance effect of transgenic soybean plants (spray, damage degree); assay type: in vivo; details: for Average damage % 6HAT: 6 hours after spraying; for Average damage % 2DAT: 2 days after spraying; for Average damage % 7DAT: 7 days after spraying; for Average damage % 14DAT: 14 days after spraying
Experimental: as §5, §6

[10] = curly rosette leaves 7 days after spraying
[11] = growth consistent with blank solvent 7 days after spraying
[12] = incapable of bolting 14 days after spraying
[13] = corn strain S9 (control sequence)
[14] = corn strain S10 (control sequence)
[15] = soybean strain S4 (control sequence)
[16] = soybean strain S5 (control sequence)
[17] = corn strain S6 (24DT11), 8960 g ae/ha
[18] = corn strain S7 (24DT11), 8960 g ae/ha
[19] = corn strain S8 (24DT11), 8960 g ae/ha
[20] = soybean strain S1 (24DT11), 2240 g ae/ha
[21] = soybean strain S2 (24DT11), 2240 g ae/ha
[22] = soybean strain S3 (24DT11), 2240 g ae/ha

In the case of `Cc1cc(Cl)ccc1OCC(=O)O` [agroxone], the “Moderate resistant (number of plants)” value [1, 10] was 0, the “Non-resistant (number of plants)” value ([1]; dead 14 days after spraying) was 32 and the “High resistant (number of plants)” value [1, 11] was 0. The “Low resistant (number of plants)” value [1, 12] was 0, the “Abnormal development of brace roots (number of plants)” value (shortened to “Abnormal development of brace roots”) [2] was 15 and the “Normal development of brace roots (number of plants)” value [2] was 0. For the same compound, the “Proportion of normal development of brace roots” value (shortened to “Proportion”) [2] was 0%, the “High resistant (number of plants)” value ([3]; 560 g ae/ha (1-fold field concentration), growth consistent with blank solvent 7 days after spraying) was 22 and the “Moderate resistant (number of plants)” value ([3]; 560 g ae/ha, curly rosette leaves 7 days after spraying) was 4. For the same compound, the “Non-resistant (number of plants)” value ([3]; 560 g ae/ha, dead 14 days after spraying) was 3, the “Low resistant (number of plants)” value ([3]; 560 g ae/ha, incapable of bolting 14 days after spraying) was 2 and the “Abnormal development of brace roots” value [4, 13] was 14. For the same compound, the “Normal development of brace roots (number of plants)” value [4, 13] was 0, the “Proportion” value [4, 13] was 0% and the “Abnormal development of brace roots” value [4, 14] was 12. For the same compound, the “Normal development of brace roots (number of plants)” value [4, 14] was 0, the “Proportion” value [4, 14] was 0% and the “Average damage % 6HAT” value [5, 15] was 38%. For the same compound, the “Average damage % 2DAT” value [5, 15] was 69%, the “Average damage % 7DAT” value [5, 15] was 87% and the “Average damage % 14DAT” value [5, 15] was 100%. For the same compound, the “Average damage % 6HAT” value [5, 16] was 47%, the “Average damage % 2DAT” value [5, 16] was 74% and the “Average damage % 7DAT” value [5, 16] was 92%. For the same compound, the “Average damage % 14DAT” value [5, 16] was 100%, the “Normal development of brace roots (number of plants)” value ([6]; corn strain S6 (24DT11), 8960 g ae/ha (16-fold field)) was 11 and the “Abnormal development of brace roots” value [6, 17] was 0. For the same compound, the “Proportion” value [6, 17] was 100.00%, the “Abnormal development of brace roots” value [6, 18] was 0 and the “Normal development of brace roots (number of plants)” value [6, 18] was 11. For the same compound, the “Proportion” value [6, 18] was 100.00%, the “Abnormal development of brace roots” value [6, 19] was 0 and the “Normal development of brace roots (number of plants)” value [6, 19] was 12. For the same compound, the “Proportion” value [6, 19] was 100.00%, the “Moderate resistant (number of plants)” value [7, 10] was 0 and the “Non-resistant (number of plants)” value ([7]; dead 14 days after spraying) was 32. The “High resistant (number of plants)” value [7, 11] was 0, the “Low resistant (number of plants)” value [7, 12] was 0 and the “Average damage % 6HAT” value ([8]; 6 hours after spraying) was 34%. For the same compound, the “Average damage % 2DAT” value ([8]; 2 days after spraying) was 61%, the “Average damage % 7DAT” value ([8]; 7 days after spraying) was 82% and the “Average damage % 14DAT” value ([8]; 14 days after spraying) was 100%. For the same compound, the “Average damage % 6HAT” value ([9]; soybean strain S1 (24DT11), 2240 g ae/ha (4-fold field)) was 12%, the “Average damage % 2DAT” value [9, 20] was 7% and the “Average damage % 7DAT” value [9, 20] was 0%. For the same compound, the “Average damage % 14DAT” value [9, 20] was 0%, the “Average damage % 6HAT” value [9, 21] was 9% and the “Average damage % 2DAT” value [9, 21] was 5%. The “Average damage % 7DAT” value [9, 21] was 0%, the “Average damage % 14DAT” value [9, 21] was 0% and the “Average damage % 6HAT” value [9, 22] was 19%. The “Average damage % 2DAT” value [9, 22] was 12%, the “Average damage % 7DAT” value [9, 22] was 7% and the “Average damage % 14DAT” value [9, 22] was 4%.
